Here are results for twelve compounds from patent US5677297A, “Benzazepine-, benzoxazepine- and benzothiazepine-n-acetic acid derivatives, process for their preparation and pharmaceutical compositions containing them” (Solvay Pharmaceuticals GmbH, priority 1995, dated 1997).

By pKi is commonly meant the negative decadic logarithm of the Ki, by convention in mol/L. As a reminder, the pIC50 is the IC50 on a negative log10 scale, so that one unit is a factor of ten.

Series [1] can be described thus: In vivo determination of the effect on diuresis/natriuresis in volume-loaded rats. The conditions noted are these: volume loading 120 minutes after administration, urine collected over 60 min. More on the design: species or system rat (male Wistar). The procedure:
4. In vivo determination of the effect of the substances on diuresis/natriuresis in volume-loaded rats.
The in vivo activity was investigated in volume-loaded rats. In this experiment a high cardiac filling pressure was caused by infusion of isotonic sodium chloride solution, which results in ANP release and thus diuresis/natriuresis.
The tests are carried out with male Wistar rats having a body weight of 200-400 g. Under neuroleptanalgesia (fentanyl; Hypnorm™, manufactured by Janssen), a catheter was placed in the right femoral vein for the baseline infusion and the volume loading with isotonic sodium chloride solution. After the abdominal cavity had been opened, a second catheter was inserted into the bladder, and the urethra was tied off so that it was possible to measure the urine volume, natriuresis and kaliuresis.
The abdominal cavity was closed again and the animals received a continuous infusion with sodium chloride solution (0.5 ml/100 g body weight) throughout the 2 hours of the test. After an equilibration period of 30 minutes, in a preliminary phase before the test substance was given, urine samples were collected three times over a period of 10 minutes in each case. These preliminary values ("predrug" values) were determined in order to check that there was a continuous flow of urine in the test animals.
The solutions containing test substances were then administered intravenously (bolus injection into the femoral vein) or orally (by gavage) to groups of 10 rats each. With both modes of administration, in each case one control group of animals received only placebo solutions which contained no active substance. 5 Minutes after i.v. administration or 120 minutes after oral administration of the substances, the rats were loaded with an increased volume of sodium chloride solution i.v. (2 ml/100 g body weight in 2 minutes) and the urine was collected over a period of 60 min. The amounts of urine produced in this period were determined, and the sodium and potassium contents therein were measured. The increase in excretion which took place under volume loading by comparison with the preliminary values was deduced from the resulting amounts of urine.
Furthermore, the amounts of sodium and potassium excreted under volume loading after administration of test substance are also indicated as a percentage of the amounts of sodium and potassium excreted under volume loading after placebo administration.

Details of series [2]: species or system mouse (male). Particulars: mouse, in vivo, po, 4320 min. The procedure:
1. Determination of the minimum toxic dose
Male mice weighing 20-25 g received oral administrations of maximum doses of 300 mg/kg of the test substance. The animals were carefully observed for signs of toxicity for 3 hours. In addition, all signs and deaths over a period of 72 hours after administration were recorded. Accompanying signs were likewise observed and recorded. If death or signs of severe toxicity were observed, further mice were given increasingly lower doses until signs of toxicity no longer appeard. The lowest dose which caused death or signs of severe toxicity is indicated in following Table A as the minimum toxic dose. The example numbers listed in Table A refer to the following preparation examples.

Series [3] deals with neutral endopeptidase (NEP), purified NEP (E.C.3.4.24.11) (Homo sapiens, UniProt P08473). The series is described as follows: In vitro investigation of the NEP-inhibitory effect (hydrolytic degradation of met-enkephalin). Particulars: substrate met-enkephalin, 37° C., pH 7.4. Type of series: biochemical. The procedure: 2. In vitro investigation of the NEP-inhibitory effect of the substances and determination of the affinity of the substance molecules for the enzyme molecule. […] The Ki (inhibitor constant) of each substance was determined as a measure of its inhibitory activity. The Ki of a test substance with enzyme-inhibiting activity is the dissociation constant for the enzyme/test substance complex or the (enzyme/substrate)--test substance complex and has units of concentration.
To carry out the test, respective 100 μl samples of various incubation solutions containing 10 ng of purified NEP (E.C.3.4.24.11) and in each case different amounts of test substance and of substrate (met-enkephalin)and 50 mM tris buffer (=tris(hydroxymethyl)aminomethane/HCl, pH 7.4) were prepared.
For each test substance, 24 different incubation solutions were prepared with 3 different test substance concentrations respectively combined with met-enkephalin contents of 2, 5, 7, 10, 12, 15, 40 and 100 μm.
In each test, two types of control incubation solutions were also processed, on the one hand enzyme controls which contain no test substance, and on the other hand substrate controls which contain neither enzyme nor test substance.
The incubation solutions were incubated in a shaking water bath at 37° C. for 45 minutes. The enzyme reaction was started after 15 minutes by adding the substrate (metenkephalin) and was stopped at the end of the incubation time by heating at 95° C. for 5 minutes. The stopped incubation solution was then centrifuged at 12,000×g for 3 minutes, and the concentrations of unreacted substrate and of hydrolysis products formed by the enzymatic reaction were determined in the supernatant. For this purpose, samples of each of the respective supernatants were fractionated by HPLC (high-pressure liquid chromatography) on hydrophobized silica gel, and the products of the enzymatic reaction and unreacted substrate were determined by photometry at a wavelength of 205 nm. The HPLC separation was carried out using a column (4.6×250 mm) which contains Encapharm™ 100 RP18 having an average particle size of 5 μm as reversed phase separation material. The solvent flow rate was 1.4 ml/min, and the column was warmed to 40° C. Mobile phase A was 5 mM H3 PO4, pH 2.5, and mobile phase B was acetonitrile +1% 5 mM H3 PO4, pH 2.5.
The Ki for each test substance was calculated in a known manner from the concentrations of hydrolysis products and unreacted substrate measured in the various samples. […] The example numbers indicated in Table B refer to the following preparation examples.

Series [4] has as its target T1, endothelin-converting enzyme (ECE) (Homo sapiens, UniProt P42892).
T1 construct: expressed in transfected cells; host or cells: CHO cells (Chinese hamster ovary), membrane fraction
T1 sequence (P42892 1-770): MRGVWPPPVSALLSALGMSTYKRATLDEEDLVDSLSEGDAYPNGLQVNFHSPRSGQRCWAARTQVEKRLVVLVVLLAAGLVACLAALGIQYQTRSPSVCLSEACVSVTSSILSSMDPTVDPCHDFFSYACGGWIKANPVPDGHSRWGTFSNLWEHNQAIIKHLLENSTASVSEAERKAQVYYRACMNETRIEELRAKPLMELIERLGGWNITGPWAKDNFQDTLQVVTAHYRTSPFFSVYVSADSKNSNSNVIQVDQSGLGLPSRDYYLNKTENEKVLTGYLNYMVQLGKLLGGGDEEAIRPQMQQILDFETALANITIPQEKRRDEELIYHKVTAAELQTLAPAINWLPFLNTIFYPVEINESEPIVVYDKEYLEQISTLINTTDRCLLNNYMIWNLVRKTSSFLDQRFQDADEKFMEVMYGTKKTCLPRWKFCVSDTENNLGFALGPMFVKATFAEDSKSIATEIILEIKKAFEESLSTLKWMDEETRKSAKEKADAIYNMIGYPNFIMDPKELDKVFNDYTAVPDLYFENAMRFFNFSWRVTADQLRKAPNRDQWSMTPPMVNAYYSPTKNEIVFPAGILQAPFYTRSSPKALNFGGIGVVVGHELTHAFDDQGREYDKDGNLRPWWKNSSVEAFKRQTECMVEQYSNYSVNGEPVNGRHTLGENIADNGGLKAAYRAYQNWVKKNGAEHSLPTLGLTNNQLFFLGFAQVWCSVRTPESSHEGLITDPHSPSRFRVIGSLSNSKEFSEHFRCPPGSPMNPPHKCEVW
The series is described as follows: In vitro investigation of the ECE-inhibitory effect (recombinant human ECE in CHO cell membrane fraction). Type of series: biochemical. The conditions noted are these: 24 μM synthetic peptide substrate, pH 7.0, 37° C., 60 min. The procedure: 3. In vitro investigations of the ECE-inhibitory effect of the substances.
The IC50 of the substances was determined as a measure of their inhibitory activity. The IC50 of a test substance with enzyme-inhibiting activity is the concentration of the test substance at which 50% of the enzymatic activity of ECE is inhibited.
Preparation of the ECE-containing endothelial cell membrane fraction.
Egg cells from the Chinese hamster (Chinese hamster ovary cells, hereinafter CHO cells) in which there was recombinant expression of human ECE [see Schmidt et al., Federation of European Biochemical Societies Letters 356 238-43 (1994)] were lysed, and the cell membranes were removed by centrifugation at 10,000×g for 10 min. The cell membranes were washed by resuspension and repeated centrifugation three times. The ECE-containing cell membrane fraction was resuspended in 100 mM tris/HCl buffer (tris(hydroxymethyl)aminomethane/HCl, pH 7.0, containing 250 mM NaCl) and stored frozen at -70° C. before the enzyme test.
To carry out the test, respective 100 μl samples of various incubation solutions each containing 5 μg protein from an ECE-containing preparation of endothelial cell membranes and different amounts of test substance and 24 μM substrate (synthetic peptide: H2 N-Asp-Ile-Ala-Trp-Phe-Asn-Thr-Pro-Glu-His-Val-Val-Pro-Tyr-Gly-Leu-Gly-COOH) (SEQ ID NO:1) and 100 mM tris buffer (tris(hydroxymethyl)aminomethane/HCl, pH 7.0, containing 250 mM sodium chloride) were prepared. […]
The incubation solutions were preincubated at 37° C. for 15 min before the substrate was added. […] The hydrolysis products H2N-Asp-Ile-Ala-Trp-COOH (SEQ ID NO:2) and H2 N-Phe-Asn-Thr-Pro-Glu-His-Val-Val-Pro-Tyr-Gly-Leu-Gly-COOH (SEQ ID NO:3) formed from the substrate by the enzymatic reaction were determined with the aid of high-pressure liquid chromatography (HPLC). […] The IC50 was calculated for each test substance in a known manner from the concentrations of hydrolysis products measured in the various samples.

pIC50, pKi: −log10 of the molar value.

Chain of neutral endopeptidase (NEP), purified NEP (E.C.3.4.24.11) (P08473 whole entry): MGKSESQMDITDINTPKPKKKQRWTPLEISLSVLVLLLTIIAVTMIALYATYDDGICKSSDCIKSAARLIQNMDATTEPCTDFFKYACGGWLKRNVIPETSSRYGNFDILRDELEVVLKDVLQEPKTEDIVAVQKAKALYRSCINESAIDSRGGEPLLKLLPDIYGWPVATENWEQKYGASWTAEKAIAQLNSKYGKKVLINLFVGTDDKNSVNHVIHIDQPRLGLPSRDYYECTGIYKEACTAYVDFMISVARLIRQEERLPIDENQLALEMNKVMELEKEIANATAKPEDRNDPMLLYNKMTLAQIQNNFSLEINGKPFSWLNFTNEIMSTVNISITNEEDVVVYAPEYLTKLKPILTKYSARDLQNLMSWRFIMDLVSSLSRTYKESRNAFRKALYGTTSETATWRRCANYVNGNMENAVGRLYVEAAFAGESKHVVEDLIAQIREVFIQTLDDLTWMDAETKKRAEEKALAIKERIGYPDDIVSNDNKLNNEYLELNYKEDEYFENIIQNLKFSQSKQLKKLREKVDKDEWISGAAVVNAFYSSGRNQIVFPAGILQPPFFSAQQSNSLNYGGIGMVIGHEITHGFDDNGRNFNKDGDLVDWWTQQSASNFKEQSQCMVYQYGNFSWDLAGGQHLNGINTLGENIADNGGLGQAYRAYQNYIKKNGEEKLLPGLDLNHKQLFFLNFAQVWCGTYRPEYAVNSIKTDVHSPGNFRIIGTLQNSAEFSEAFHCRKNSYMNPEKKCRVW

Turning to `CCOC(=O)[C@H](CCc1ccccc1)CC1(C(=O)N[C@H]2CCc3ccccc3N(CC(=O)O)C2=O)CCCC1` [Example 4, (3S,2'R)-3-{1-[2'-(Ethoxycarbonyl)-4'-phenylbutyl]cyclopentane-1-carbonylamino}-2,3,4,5-tetrahydro-2-oxo-1H-1-benzazepine-1-acetic acid], the “Increase in the excretion of urine under volume loading after administration of test substance as % based on the increase after placebo administration” value in series [1] (15 mg/kg p.o.) is listed as 196.5%; in series [1] (51 mg/kg p.o.) it was 271%.

The compound `O=C(O)CN1C(=O)C(NC(=O)C2(CC(CCc3ccccc3)C(=O)O)CCCC2)CCc2ccccc21` (stereo not drawn) [Example 6, 3-[1-(2'-Carboxy-4'-phenylbutyl)cyclopentane-1-carbonylamino]-2,3,4,5-tetrahydro-2-oxo-1H-1-benzazepine-1-acetic acid] displayed a Minimum toxic dose in series [2] greater than 300 mg/kg. In series [3], the pKi was 9.17.

In turn, `COCCOC[C@H](CC1(C(=O)N[C@H]2COc3ccccc3N(CC(=O)O)C2=O)CCCC1)C(=O)O` [Example 11, (3S,2'S)-3-{1-[2'-Carboxy-3'-(2-methoxyethoxy)propyl]cyclopentane-1-carbonylamino}-4-oxo-3,4-dihydro-1,5-benzoxazepine-5(2H)-acetic acid] gave a pKi in series [3] of 8.59.

Consider `O=C(O)CN1C(=O)[C@@H](NC(=O)C2(CC(CCOc3ccc(F)cc3)C(=O)O)CCCC2)CSc2ccccc21` (stereo partly drawn) [Example 13, (3R)-3-{1-[2'-Carboxy-4'-(4-fluorophenoxy)butyl]cyclopentane-1-carbonylamino}-4-oxo-3,4-dihydro-1,5-benzothiazepine-5(2H)-acetic acid], for which, in series [3], the pKi was 9.12.

As for `COCCOC[C@H](CC1(C(=O)N[C@H]2CCc3ccccc3N(CC(=O)O)C2=O)CCCC1)C(=O)O` [Example 22], the pKi in series [3] was 8.67.

In the case of `O=C(O)CN1C(=O)C(NC(=O)C2(CC(CCc3cccc4ccccc34)C(=O)O)CCCC2)CCc2ccccc21` (stereo not drawn) [Example 24], the Minimum toxic dose in series [2] is recorded as greater than 300 mg/kg. This compound also showed a pKi in series [3] of 9.00.

In turn, `O=C(O)CN1C(=O)C(NC(=O)C2(CC(CCOc3ccc(F)cc3)C(=O)O)CCCC2)CCc2ccccc21` (stereo not drawn) [Example 26] had a pKi in series [3] of 8.91.

Turning to `O=C(O)CN1C(=O)C(NC(=O)C2(CC(Cc3ccccc3)C(=O)O)CCCC2)CCc2ccccc21` (stereo not drawn) [Example 27], the Minimum toxic dose in series [2] is greater than 300 mg/kg.

`O=C(O)CN1C(=O)[C@@H](NC(=O)C2(CC(Cc3ccccc3)C(=O)O)CCCC2)CCc2ccccc21` (stereo partly drawn) [Example 29] gave a pKi in series [3] of 8.97.

For the compound `O=C(O)CN1C(=O)[C@@H](NC(=O)C2(C[C@@H](CCc3ccccc3)C(=O)O)CCCC2)CCc2ccccc21` [Example 37], in series [2], the Minimum toxic dose is given as greater than 300 mg/kg.

Regarding `O=C(O)CN1C(=O)C(NC(=O)C2(CC(Cc3cccc4ccccc34)C(=O)O)CCCC2)CCc2ccccc21` (stereo not drawn) [Example 38], the pIC50 in series [4] was 5.66.

Take `O=C(O)CN1C(=O)[C@@H](NC(=O)C2(C[C@@H](CCc3cccc4ccccc34)C(=O)O)CCCC2)CCc2ccccc21` [Example 39]: the pIC50 in series [4] was 6.28.
